Assay results from PMC11547576, “Identification of a New Promising BAG3 Modulator Featuring the Imidazopyridine Scaffold” (Molecules, 2024).

How the values were obtained:
BAG3 full-length = molecular target: T1, BAG3 full-length (Homo sapiens, UniProt O95817); assay: SPR assay on BAG3 full-length protein; settings: Biacore T200, 0 to 100 µM, 25 °C, 1:1 interaction model, n.b. = no binding; for Kd: read-out: BAG3 FULL KD (µM) ± SD
T1 construct: both the full-length BAG3 protein and its BAG domain; purchased Novus Biologicals (Littleton, CO, USA)
T1 sequence (O95817 whole entry, the tested form may be a part): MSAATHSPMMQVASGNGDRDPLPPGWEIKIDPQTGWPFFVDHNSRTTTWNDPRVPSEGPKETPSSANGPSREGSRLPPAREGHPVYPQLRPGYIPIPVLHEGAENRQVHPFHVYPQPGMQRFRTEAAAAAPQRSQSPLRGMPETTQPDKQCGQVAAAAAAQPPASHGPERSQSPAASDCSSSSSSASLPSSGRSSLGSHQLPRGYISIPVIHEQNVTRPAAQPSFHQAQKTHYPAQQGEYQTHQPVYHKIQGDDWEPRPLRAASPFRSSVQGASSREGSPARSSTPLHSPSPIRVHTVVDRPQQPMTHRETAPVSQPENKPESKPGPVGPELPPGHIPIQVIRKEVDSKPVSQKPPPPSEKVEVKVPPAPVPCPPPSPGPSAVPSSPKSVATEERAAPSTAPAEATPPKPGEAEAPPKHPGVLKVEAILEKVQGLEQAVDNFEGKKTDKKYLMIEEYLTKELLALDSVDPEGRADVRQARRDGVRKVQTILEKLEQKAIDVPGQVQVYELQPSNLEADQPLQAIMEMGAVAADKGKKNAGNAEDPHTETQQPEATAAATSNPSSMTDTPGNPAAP
Description: (§1) In this study, we employed SPR experiments to evaluate the interactions between synthesized compounds (1–14) and both the full-length BAG3 protein and its BAG domain. Only the compounds that successfully bound to the full-length BAG3 protein were tested for their interaction with the BAG domain. Protein immobilization was achieved using the amide coupling method, and the compounds were tested at ten different concentrations, ranging from 0 to 100 µM. A known binder of BAG3-BD, LK4 ((Z)-ethyl 2-(5-(3,4-dihydroxybenzylidene)-2,4-dioxothiazolidin-3yl)acetate), was used as a positive control. […] Compound 14 also bound the target but with slightly higher KD values, still within the micromolar range. The three identified compounds were further investigated to understand whether this binding induced an effect on BAG3 protein functions. The KD values reported in Table 1 for the known inhibitor LK4 differ from those in previous studies due to the use of a newer-generation instrument for the SPR experiments. The earlier experiments utilized the Biacore 3000, whereas the current study employed the Biacore T200. While ligand binding was confirmed in both sets of experiments, the slightly different KD values are attributed to the enhanced sensitivity of the Biacore T200.
(§2) Recombinant human BAG3 protein (Bcl2-associated athanogene 3) was sourced from Novus Biologicals (Littleton, CO, USA), while the BAG3 domain (BAG3-BD) was procured from ARETA International S.r.l. (Gerenzano, Italy). We utilized (Z)-ethyl 2-(5-(3,4-dihydroxybenzylidene)-2,4-dioxothiazolidin-3-yl)acetate (LK4), a known BAG3 inhibitor previously identified by our group. Surface Plasmon Resonance (SPR) spectroscopy was employed to assess the affinity of synthesized molecules for BAG3 and BAG-BD using a Biacore T200 optical biosensor equipped with CM5 sensor chips (Cytiva, Marlborough, MA, USA). BAG3 and BAG-BD were immobilized on the CM5 sensor chip using standard amine-coupling protocols. BAG3 protein (0.067 μg/μL in 10 mM CH3COONa, pH 4.5) was immobilized at a flow rate of 10 μL/min, resulting in a density of 14 kRU. The BAG3 domain (0.38 μg/μL in 10 mM CH3COONa, pH 4.5) was immobilized under similar conditions, achieving a density of 4 kRU. For the experiments, BAG3 and BAG-BD surfaces, along with an unmodified reference surface, were prepared for simultaneous analyses.
Compounds 1–14 and LK4 were dissolved to 10 mM in 100% DMSO and then diluted 1:20 (v/v) in PBS-P buffer (0.2 M phosphate buffer, 27 mM KCl, 1.37 M NaCl, 0.5% surfactant P20) to achieve a final DMSO concentration of 5.0%. These compounds were injected in a concentration series (1:2 dilution, 10 different concentrations) ranging from 0 to 100 μM, prepared in 96-well plates. SPR experiments were conducted at 25 °C with a flow rate of 20 μL/min, featuring 90 s of association and 400 s of dissociation monitoring. Changes in mass, reflected as resonance units (RU), were recorded to determine binding responses. KD values were calculated using Biaevaluation software 3.2 by globally fitting the double-referenced association and dissociation data to a 1:1 interaction model. See Supplementary Materials for all the sensorgrams (Figures S43–S50).

BAG3-BD = molecular target: T2, BAG3-BD (Homo sapiens, UniProt O95817); assay: SPR assay on BAG domain of BAG3 (BAG3-BD); type: binding; settings: Biacore T200, 0 to 100 µM, 25 °C, 1:1 interaction model, read-out: BAG DOMAIN KD (µM) ± SD
T2 construct: the BAG3 domain (BAG3-BD) was procured from ARETA International S.r.l; purchased ARETA International S.r.l; (Gerenzano, Italy)
T2 sequence (O95817 421-498 limits assumed): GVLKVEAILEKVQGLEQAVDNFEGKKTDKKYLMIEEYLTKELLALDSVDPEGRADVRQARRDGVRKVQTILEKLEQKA
Description: as §1
as §2, with “For the experiments, BAG3 and BAG-BD surfaces, along with an unmodified reference surface, were prepared for simultaneous analyses.” left out
Compounds 1–14 and LK4 were dissolved to 10 mM in 100% DMSO and then diluted 1:20 (v/v) in PBS-P buffer (0.2 M phosphate buffer, 27 mM KCl, 1.37 M NaCl, 0.5% surfactant P20) to achieve a final DMSO concentration of 5.0%. […] Changes in mass, reflected as resonance units (RU), were recorded to determine binding responses. KD values were calculated using Biaevaluation software 3.2 by globally fitting the double-referenced association and dissociation data to a 1:1 interaction model. […]

HeLa cells = assay: MTT cell viability assay on HeLa cells; type: cell-based; settings: 72 h
Description: Elevated expression levels of BAG3 are strongly associated with signaling pathways in various types of malignant cells; consequently, reducing the activity of this co-chaperone inhibits cell proliferation, triggers apoptosis, and induces cell cycle arrest. To assess the activity of compounds 10, 12, and 14, cytotoxicity assays were performed on HeLa cells, which were chosen for their tendency to overexpress BAG3 proteins. MTT assays were conducted by exposing HeLa cells to different concentrations of the compounds (25, 50, and 100 µM) for 72 h. Additionally, 10% DMSO was used as a positive control, while 0.1% DMSO served as a negative control. […] The next step involved the assessment of the cytotoxicity of the most promising candidate, 10, on healthy cells to determine its safety profile. To achieve this, MTT assays were conducted on HaCat cells over 72 h.
Human cervical carcinoma cell lines (HeLa, kindly donated by Prof. Ornella Moltedo, Department of Pharmacy, University of Salerno) and immortalized human keratinocytes (HaCaT) were cultured in a DMEM/high glucose medium. This medium was supplemented with 10% FBS (v/v), 2 mM/L glutamine, 100 U/mL penicillin, and […] streptomycin. The cells were maintained at 37 °C in a humidified atmosphere with 5% CO2. To ensure logarithmic growth, the cells were sub-cultured every 2 days.
Cell viability was assessed by measuring mitochondrial metabolic activity using a colorimetric assay, which involves the reduction of 3-[4,5-dimethylthiazol-2,5-diphenyl-2H-tetrazolium bromide (MTT) to purple formazan. Stock solutions of compounds 10, 12, and 14 (50 mM in DMSO) were stored at −20 °C in the dark and diluted just before being added to the sterile culture medium. Briefly, HeLa cells (3.5 × 10^3 cells/well) were seeded in triplicate in 96-well plates, and after 24 h, to allow for attachment, the cells were treated with various concentrations of the tested compounds (25, 50 and 100 μM), 0.1% (v/v) DMSO as a negative control, and 10% (v/v) DMSO as a positive control for 72 h. Following treatment, 20 μL of MTT (5 mg/mL in PBS) was added to each well, and the cells were incubated for an additional 3 h at 37 °C. The formazan crystals formed were then dissolved in 100 μL of a buffer containing 50% (v/v) N, N-dimethylformamide and 20% SDS (pH 4.5). Absorbance was measured at 570 nm using a Multiskan™ GO Microplate Spectrophotometer (Thermo Fisher Scientific, Waltham, MA, USA,). […] The IC50 values, representing the concentration causing 50% inhibition of cell survival, were calculated and compared to control cells treated with DMSO using GraphPad Prism 8.0 software through nonlinear regression of dose–response inhibition. Only for compound 10 was the IC50 also assessed on HaCaT cells (5.0 × 10^3 cells/well) after 72 h of treatment.

Row | BAG3 FULL KD (µM) ± SD (BAG3 full-length) | SMILES | further results
1 | n.b. | CCc1ccc(-c2nc3cc(Br)ccn3c2Nc2ccc3ccccc3c2)cc1 [Compound 9, 7-bromo-2-(4-ethylphenyl)-N-(naphthalen-2-yl)imidazo[1,2-a]pyridin-3-amine] | 
2 |  | CCOC(=O)CN1C(=O)S/C(=C\c2ccc(O)c(O)c2)C1=O [LK4, (Z)-ethyl 2-(5-(3,4-dihydroxybenzylidene)-2,4-dioxothiazolidin-3yl)acetate, reference compound] | Kd (BAG3 full-length): 19.9 ± 6.58 µM; Kd (BAG3-BD): 0.18 ± 0.02 µM
3 | n.b. | CCCCNc1c(-c2ccccc2)nc2ccccn12 [Compound 3, N-butyl-2-phenylimidazo[1,2-a]pyridin-3-amine] | 
4 | n.b. ^a | c1ccc(-c2nc3ccccn3c2NC2CCCCC2)cc1 [Compound 1, N-cyclohexyl-2-phenylimidazo[1,2-a]pyridin-3-amine] | 
5 |  | Clc1ccc2nc(-c3ccccc3Br)c(Nc3ccc4ccccc4c3)n2c1 [Compound 12, 2-(2-bromophenyl)-6-chloro-N-(naphthalen-2-yl)imidazo[1,2-a]pyridin-3-amine] | Kd (BAG3 full-length): 20.7 ± 0.42 µM; Kd (BAG3-BD): 14.7 ± 2.69 µM; mortality at 25 µM (HeLa cells; Homo sapiens, 25 µM): 40%; mortality at 100 µM (HeLa cells; Homo sapiens): 60%; IC50 (HeLa cells; Homo sapiens, seven concentrations (1 to 100 µM)): 38.9 ± 3.49 µM
6 | n.b. | Brc1ccc2nc(-c3ccccc3)c(NC3CCCCC3)n2c1 [Compound 5, 6-bromo-N-cyclohexyl-2-phenylimidazo[1,2-a]pyridin-3-amine] | 
7 | n.b. | CCc1ccc(-c2nc3cc(Br)ccn3c2NC(C)C)cc1 [Compound 7, 7-bromo-2-(4-ethylphenyl)-N-isopropylimidazo[1,2-a]pyridin-3-amine] | 
8 | n.b. | COc1ccc(Nc2c(-c3cc(OC)ccc3F)nc3cc(C)ccn23)cc1 [Compound 13, 2-(2-fluoro-5-methoxyphenyl)-N-(4-methoxyphenyl)-7-methylimidazo[1,2-a]pyridin-3-amine] | 
9 | n.b. | CCc1nc2ccc(Br)cn2c1NC1CCCCC1 [Compound 6, 6-bromo-N-cyclohexyl-2-ethylimidazo[1,2-a]pyridin-3-amine] | 
10 |  | COc1ccc(F)c(-c2nc3cc(C)ccn3c2NCc2ccccc2)c1 [Compound 14, N-benzyl-2-(2-fluoro-5-methoxyphenyl)-7-methylimidazo[1,2-a]pyridin-3-amine] | Kd (BAG3 full-length): 76.2 ± 5.44 µM; Kd (BAG3-BD): 16.9 ± 5.87 µM; mortality (HeLa cells; 25 µM): lost its effect; mortality at 100 µM (HeLa cells; Homo sapiens): 50%
11 | n.b. | CCc1nc2ccccn2c1NC1CCCCC1 [Compound 2, N-cyclohexyl-2-ethylimidazo[1,2-a]pyridin-3-amine] | 
12 | n.b. | Brc1ccn2c(Nc3ccc4ccccc4c3)c(-c3ccccc3Br)nc2c1 [Compound 8, 7-bromo-2-(2-bromophenyl)-N-(naphthalen-2-yl)imidazo[1,2-a]pyridin-3-amine] | 
13 | n.b. | CCc1ccc(-c2nc3ccc(Cl)cn3c2NC(C)C)cc1 [Compound 11, 6-chloro-2-(4-ethylphenyl)-N-isopropylimidazo[1,2-a]pyridin-3-amine] | 
14 | n.b. | CCCCNc1c(CC)nc2ccccn12 [Compound 4, N-butyl-2-ethylimidazo[1,2-a]pyridin-3-amine] | 
